In US5089623A, “Certain imidate insecticides” (Imperial Chemical Industries Plc, priority 1990, dated 1992):

What was measured:
Format in all cases: in vivo
[1] = test system: Housefly [Musca domestica]; test: Housefly insecticidal test (HF); settings: per 25 female houseflies, 48 hours
[2] = test system: Aster Leafhopper [Macrosteles fascifrens (Stal)]; test: Aster leafhopper test (LH); settings: adults/nymphs, 48 hours, percent in solution
[3] = test system: Tobacco Budworm [Heliothis virescens (Fabricius)] eggs; test: Tobacco budworm egg test (TBW-E); settings: percent in solution
[4] = test system: Maize weevil [Sitophilus Zeamais (Motschulsky)]; test: Maize weevil test (MW); settings: adult weevils, treated corn seeds, 48 hours, percent in solution
Method in brief: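 Adult weevils (10) were placed with four corn seeds that had been dipped 2-3 s in compound dissolved in 50:50 acetone:water, then dried, and held at about 25° C. Mortality was scored at 48 h. LC50 was taken from dosage-mortality curves and expressed as percent compound in solution, from a 0.01% top concentration.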

[5] = test system: Cabbage Looper [Trichoplusia ni (Hubner)]; test: Cabbage looper test (CL); settings: second-instar larvae, 3-5 days, percent in solution

SMILES | LC50 HF [1] [µg] | LC50 LH [2] [%] | LC50 TBW E [3] [%] | LC50 MW [4] [%] | LC50 CL [5] [%]
COc1ccc(N=C(OCc2cccc(Oc3ccccc3)c2)C(C)C)cc1 [Compound 160] | 7 | 0.05 | 0.09 | > 0.01 | 0.005
CC(C)C(=Nc1ccccc1Br)OCc1cccc(Oc2ccccc2)c1 [Compound 132] | 65 | > 0.05 | > 0.1 | > 0.01 | 0.025
CC(C)C(=Nc1ccc(F)c(Cl)c1)OCc1cccc(Cc2ccccc2)c1 [Compound 541] | < 100 | > 0.05 | > 0.1 | > 0.01 | 0.001
CC(=Nc1ccc(F)c(F)c1)OCc1coc(Cc2ccccc2)c1 [Compound 526] | 8.3 | > 0.05 | > 0.1 | > 0.01 | > 0.01
CSc1ccc(N=C(OCc2cccc(Oc3ccccc3)c2)C(C)C)cc1 [Compound 142] | 15 | > 0.05 | 0.1 | > 0.01 | 0.005
CCc1ccc(N=C(OCc2ccc(F)c(Oc3ccc(F)cc3)c2)C(C)C)cc1 [Compound 361] | < 100 | < 0.05 | 0.04 | > 0.01 | 0.001
CC(C)C(=Nc1ccc(F)cc1)OCCc1cccc(Oc2ccccc2)c1 [Compound 456] | > 100 | > 0.05 | > 0.05 | > 0.01 | 0.017
CC(C)C(=Nc1ccccc1)OCc1cccc(Oc2ccccc2)c1 [Compound 43] | 7 | > 0.05 | 0.05 | > 0.01 | 0.018
CC(C)C(=Nc1ccc(F)c(Cl)c1)OCc1cccc(Oc2ccc(Cl)cn2)c1 [Compound 527] | 47 | > 0.05 | 0.035 | > 0.01 | 0.00065
CCc1ccc(N=C(OCc2ccc(F)c(Oc3ccccc3)c2)C(C)C)cc1 [Compound 360] | < 100 | < 0.05 | > 0.1 | > 0.01 | 0.006
CC(C)C(=Nc1cc(Cl)ccc1Cl)OCc1cccc(Oc2ccccc2)c1 [Compound 13] | > 100 | > 0.05 | > 0.1 | > 0.01 | 0.014
CC(C)C(=Nc1ccc(C#N)cc1)OCc1cccc(Oc2ccccc2)c1 [Compound 172] | 5 | > 0.05 | 0.04 | > 0.01 | 0.002
CC(C)C(=Nc1ccc(F)c(Cl)c1)OCc1cccc(Oc2ccc(F)c(F)c2)c1 [Compound 217] | 8 | > 0.05 | 0.015 | 0.0084 | 0.00006
CC(C)C(=Nc1ccccc1C(F)(F)F)OCc1cccc(Oc2ccccc2)c1 [Compound 72] | > 100 | > 0.05 | > 0.1 | > 0.01 | 0.08
CC(C)C(=Nc1cccc(C(F)(F)F)c1)OCc1cccc(Nc2ccc(F)cc2)c1 [Compound 513] | 81 | > 0.05 | > 0.1 | > 0.01 | 0.007
Cc1c(COC(=Nc2ccc(C(C)(C)C)cc2)C(C)C)cccc1-c1ccccc1 [Compound 536] | > 100 | > 0.05 | > 0.1 | > 0.01 | < 0.1
CC(C)C(=Nc1cccc(C(F)(F)F)c1)OCc1cc(Oc2ccc(F)cc2)ccn1 [Compound 528] | 59.1 | > 0.05 | > 0.1 | > 0.01 | 0.0075
Fc1ccc(N=C(OCc2cccc(Oc3ccccc3)c2)C(F)(F)C(F)(F)F)cc1Cl [Compound 117] | 55 | 0.0003 | > 0.1 | > 0.01 | 0.006
CC(C)C(=Nc1ccc(F)c(Cl)c1)OCC#CCOc1ccccc1 [Compound 534] | > 100 | > 0.05 | > 0.1 | > 0.01 | < 0.1

SMILES | LC50 HF [1] [µg] | LC50 LH [2] [%] | LC50 TBW E [3] [%] | LC50 MW [4] [%] | LC50 CL [5] [%]
COC(=O)c1ccc(N=C(OCc2cccc(Oc3ccccc3)c2)C(C)C)cc1 [Compound 151] | 38 | > 0.05 | > 0.1 | > 0.01 | 0.009
COCc1c(F)c(F)c(COC(=Nc2ccc(F)c(Cl)c2F)C(C)C)c(F)c1F [Compound 522] | 17.5 | 0.05 | > 0.1 | > 0.01 | > 0.1
COc1cccc(N=C(OCc2cccc(Oc3ccccc3)c2)C(C)C)c1 [Compound 143] | 10 | 0.006 | < 0.1 | > 0.01 | 0.002
FC(F)(F)C(=Nc1ccc(Cl)cc1)OCc1cccc(Oc2ccccc2)c1 [Compound 35] | 15 | > 0.05 | 0.03 | > 0.01 | 0.008
Cc1cc(N=C(OCc2ccc(F)c(Oc3ccccc3)c2)C(C)C)ccc1Br [Compound 358] | < 100 | < 0.05 | > 0.1 | > 0.01 | > 0.1
CC(C)C(=Nc1ccc2c(c1)OCO2)OCc1cccc(Oc2ccc(Cl)cn2)c1 [Compound 532] | > 100 | > 0.05 | > 0.1 | > 0.01 | < 0.1
CC(C)(C)C(=Nc1ccc(F)c(F)c1)OCc1coc(Cc2ccccc2)c1 [Compound 525] | > 100 | > 0.05 | > 0.1 | > 0.01 | < 0.1
C#CC(OC(=Nc1cccc(C(F)(F)F)c1)C(C)C)c1cccc(Oc2ccccc2)c1 (stereo not shown) [Compound 519] | 60 | > 0.05 | > 0.1 | > 0.01 | 0.0037
CC1(C)C(C(=Nc2ccc(F)c(Cl)c2)OCc2cccc(Oc3ccccc3)c2)C1(C)C [Compound 124] | 17 | > 0.05 | > 0.1 | > 0.01 | 0.01
CCC(=Nc1ccc(Cl)cc1)OCc1cccc(Oc2ccccc2)c1 [Compound 11] | 6 | > 0.05 | > 0.1 | > 0.01 | 0.025
CC(C)C(=Nc1ccc(F)c(Cl)c1)OCc1cccc(Oc2ccccc2F)c1 [Compound 119] | 27 | 0.0008 | 0.048 | > 0.01 | 0.0007
CC(C)C(=Nc1ccc(F)c([N+](=O)[O-])c1)OCc1cccc(Oc2ccccc2)c1 [Compound 293] | 19 | > 0.05 | > 0.1 | > 0.01 | 0.0045
CC(C)C(=Nc1ccccc1Cl)OCc1cccc(Oc2ccccc2)c1 [Compound 17] | 75 | > 0.05 | > 0.1 | > 0.01 | 0.03
CC(C)C(=Nc1ccc(F)c(Cl)c1)OCc1cc(Oc2ccc(Cl)cc2)ccn1 [Compound 516] | > 100 | > 0.05 | > 0.1 | > 0.01 | 0.008
Fc1ccc(N=C(OCc2cccc(Oc3ccccc3)c2)C(F)F)cc1 [Compound 50] | 43 | > 0.05 | > 0.05 | > 0.01 | 0.02
CC(C)C(=Nc1cccc(C(C)(C)C)c1)OCc1cccc(Oc2ccc(F)cc2)c1 [Compound 350] | > 100 | > 0.05 | > 0.1 | > 0.01 | 0.0045
CC(C)(C)C(=Nc1ccc(Cl)c(Cl)c1)OCc1cccc(Oc2ccccc2)c1 [Compound 25] | > 100 | > 0.05 | > 0.1 | > 0.01 | 0.01
CC(C)C(=Nc1ccc(F)cc1)OCc1cccc(Oc2ccc(Br)cc2)c1 [Compound 259] | 15 | > 0.05 | 0.05 | > 0.01 | 0.0003
CSc1ccc(Oc2cccc(COC(=Nc3ccc(F)c(Cl)c3)C(C)C)c2)cc1 [Compound 256] | > 100 | > 0.05 | 0.1 | > 0.01 | 0.007
